Measured values from patent publication US20260294864A1, “PHARMACEUTICAL COMPOSITION FOR THE TREATMENT AND PREVENTION OF HPV” (NP1 SRL, priority 2022, published 2026).
Blank lines part the entries; values can stand above or below the compound they belong to.

Columns and labels:
Type in all cases: cell-based, human
[1] = tested on: HeLa cells; test: Anti-clonogenic activity on HeLa cells (plating efficiency assay / live cell imaging); settings: for Anti-clonal effect / end point clonal assay, clonal inhibition alone: 50 μM; for Anti-clonal effect: isolated, FIG. 1; for clonal inhibition in combination with Apigenin: 50 μM combined with Apigenin 25 μM; for clonal inhibition in combination with Apigenin / end point clonal assay, clonal inhibition alone: FIG. 9-11; for clonal inhibition in combination with Chrysin: 50 μM combined with Chrysin 25 μM; for clonal inhibition in combination with Chrysin / synergy with Galangine, Apigenin and Chrysin: FIG. 10-11; for end point clonal assay, clonal inhibition alone: administered alone
Procedure: Panel C and D: diagrammatic topographical maps of treatments and growth conditions on plates A and B respectively.
Panel A. Hela cells were challenged with serial twofold dilutions of 50 μM Luteolin (in columns 1-6) and 100 μM Galangin (columns 7-10). Hela control untreated cells in columns 11-12.
(§1) A total of 6 cell lines, outlined in Table 3, were used for this study. The cell lines were obtained from Research Centres of cell biology in Italy, United Kingdom and Germany. This research raised no ethical concern being based on entirely in vitro experiments using no patients' derived information or material. In compliance with National and International ethical rules, no informed consent is needed.
(§2) HeLa cells are the oldest continuous cell lines and were originally derived from a HPV18 positive metastatic cervical carcinoma (Scherer W F et al 1953). Siha cells are an epithelioid like cell line derived from a HPV16-positive invasive cervical squamous carcinoma (Friedel F et al 1970). Ca-Ski cells are a line harboring multiple copy of transcriptionally active HPV16 genomes (Baker C C et al 1984). Both Hela and Siha were a kind gift of prof MS Campo, The Beatson Institute for Cancer Research, Glasgow, Scotland. These two cell lines because of their versatility and ease of use were used for most of experiments reported. Ca-Ski cells were obtained through the courtesy of prof. Matthias Durst, at the Deutsch Krebsforschungzentrum—Heidelberg, FRG. These cells used together with Siha provide a model for the genetic instability and variability of cervical cancers. HK-168 is an immortalized, non-tumorigenic, continuous cell line derived from human skin keratinocytes in vitro transformed with whole HPV16 genome (De Marco F et al 2007). This cell line is reputed to recapitulate le biological features of transformed dysplastic cells and was used in preliminary experiments to set the experimental dosages and conditions. The ME-180 cells are a cell line harboring a few, transcriptionally active, copies of HPV68 and provide an in vitro model for dysplastic/neoplastic lesions induced by HPV with Intermediate oncogenic Risk (Yee C C et al 1985). The HaCaT cells, derived from a solar skin lesion by Petra Boukamp et al (1988) are here used as an in vitro equivalent of Ultra-Violet induced pre-neoplastic epithelial cells to rule out possible direct toxic effects of polyphenols. Both HaCaT and ME-180, were kindly donated by Prof. Matthias Durst. Hela, Siha, Ca-Ski, ME-180 and HaCaT were all grown in high glucose DMEM supplemented with 10% fetal calf serum (FCS). The HK-168 cells, which retained the ability to terminally differentiate under high Ca^2+ and FCS concentrations, were grown in K-SFM, a chemically defined medium supplemented with human EGF and bovine pituitary extract (ThermoFisher Scientific, Life Technologies, Monza—MI). Each cell line was sub-cultured twice a week at the appropriate split ratio according to the specific proliferative index. In no case antibiotics or antimycotics were added to the culture media. For the present study, all cell lines were retrieved from an in-house cell archive facility.
The anti-clonogenic activity was evaluated both by the current standard qualitative plating efficiency assay and by quantitative live cell imaging analysis ([…] S3 Live Cell Analysis Imaging System—Sartorius Welwyn Garden City, Hertfordshire, UK).

[2] = tested on: Siha cells; test: Antiproliferative effect on Siha cells, live cell analysis; settings: Siha 1000 cells/well
Procedure: FIG. 2: live cell analysis of RNPs antiproliferative effect. Siha cells were seeded at 1000 cells/well in a 96 well plate and allowed to adhere overnight. The plate was then washed twice with PBS and replenished with 100 microliter/well fresh medium plus 50 μM of each compound. Images were taken every 12 hours; Growth curves were drawn plotting the percentage of confluence versus time. […] In fact, their growth curves outline a single spindle completely overlapping and masking the one of control untreated cells. Conversely, a distinct anti-proliferative effect is evident in panel B- where the growth curves of RNP 9 Kaempferol (solid squares), RNP 12 Luteolin (solid diamonds), RNP 16 Apigenin (solid circles) and control untreated cells (solid stars) are depicted. […] Each point represents the mean of six independent replicas. Bar width represents the Standard Deviation (SD). Consistent results were also obtained by HeLa and ME-180 cells
(§3) For antiproliferative effect cells were seeded in 96-well microplates at 1000 cells/per well (i.e.: 30 cell/mm^2), a density allowing exponential growth rate for the subsequent 8-day incubation. After overnight adhesion cell monolayers were washed and replenished with fresh media with different testing molecules, plain medium served as cell growth control.
(§4) Cell growth was then monitored by automated INCUCTE S3 imaging Systems. Images were acquired at 12-hours intervals. The analysis parameters were as follows: segmentation adjustment=0.9; hole fill <7,000 μm^2; adjusted pixel=0.
Data for growth curves, anti-clonal and Antiproliferative assays were obtained from at least three independent experiments. Each data point of quantitative anti-proliferative or anti-clonal experiments represents the mean (±SD) of eight independent replicates. Data were analyzed and plotted using Prism 6.0 software (GraphPad Software, San Diego, CA).

[3] = tested on: Siha cells; test: Anti-clonogenic activity on SiHa cells (plating efficiency assay / live cell imaging); settings: for end-point anti-clonal effect versus control untreated cells: 25.0 μM, FIG. 6-8
Procedure: In this experiment Kaempferol and Apigenin were administered to Siha cells at decremental concentrations, either in combination or alone, as shown in the topographical map (in panel C). […] Histograms in Panel B depict the number of colonies per well as evaluated by visual inspection and count.
The Histograms in Panel B depict the number of colonies per well as evaluated by visual inspection and count. • In Panel C a topographical map of plate treatments. Each condition was assayed in duplicate.
Kaempferol, Galangin, Luteolin and their combination were administered to SiHa cells at the concentrations of 25 μM each and of 12,5/12,5/6,25 μM for their combination. Treatments were allowed to stay on cells either for 2 or 4/8/16/24 hours. After that, treatments were washed out, cells washed two times with PBS, replenished with fresh medium and the anti-clonal effect was then monitored by live cell image analysis.
as §1, §2

[4] = tested on: HPV transformed cells; test: Anti-clonal effect on HPV transformed cells (cell line not stated); settings: for IC50: Homo sapiens, minimal concentration reducing 50% of CFU of treated versus control, read-out: CID50 (50% clonal inhibitory dose), isolated polyphenols; for IC50 / IRR (inhibitory relative rate) / anticlonogenic / anti-clonal effect: isolated compound; for IRR (inhibitory relative rate): reverse ratio of CID50 to the reference CID50 of Quercetin (=1); for anticlonogenic / anti-clonal effect / clonal inhibition in combination: summary statement
Procedure: The inhibitory relative rate (IRR) (fourth column) provides an efficacy ranking of molecules.
The anti-clonogenic activity was evaluated both by the current standard qualitative plating efficiency assay and by quantitative live cell imaging analysis (INCUCYTE S3 Live Cell Analysis Imaging System—Sartorius Welwyn Garden City, Hertfordshire, UK). For qualitative plating efficiency assay cells were seeded at ‘clonal’ density (i.e., 0.5 cell/mm^2) either in medium containing the testing molecules or with plain medium and incubated without any further manipulation. After 9-14 days, according to the cell line specific proliferative index, the cultures were decanted and stained with 0.2% CV/methanol for 5 min at room temperature. All conditions were tested in triplicates in a 6-well culture plate. The anti-clonogenic activity of the treatments was evaluated using the colony forming units (CFU) of treated versus control cultures. The minimal concentration which could reduce 50% of the CFU of treated versus control culture was defined as colony-forming Inhibitory concentration (CID50). For quantitative evaluation cells were seeded in 96-well microplates at the above density and condition and allowed to grow the subsequent 8-day incubation in the INCUCYTE S3 Imaging System. Images were acquired at 12-hours intervals and colony formation and percentage of growth area covered (confluency) were then monitored through automated image analysis. The analysis parameters were as follows: segmentation adjustment=0.4; hole fill <5,000 μm^2; adjusted pixel=−2.

[5] = tested on: HPV transformed cells; test: Antiproliferative effect on HPV transformed cells (cell line not stated); settings: summary statement, isolated compound
Procedure: as §3, §4

[6] = 50 μM combined with Galangin 25 μM, HeLa, FIG. 11
[7] = combined with Galangin, Chrysin or Apigenin

IC50 [4]: 25 µM
SMILES: O=c1cc(-c2ccc(O)cc2)oc2cc(O)cc(O)c12 [Apigenin]
Anti-clonal effect ([1]; HeLa): almost complete suppression of clonal activity
antiproliferative effect ([2]; 50 μM, FIG. 2): distinct, although milder effect
inhibition at 50 µM ([2]; Homo sapiens, FIG. 2, read-out: suppression of proliferation): ~20%
clonal efficiency versus control untreated cells ([3]; 12.5 μM, alone, Siha, FIG. 4): no difference to control untreated cells
end-point anti-clonal effect versus control untreated cells ([3]; alone, SiHa): no difference to control untreated cells
IRR (inhibitory relative rate) [4]: 2
anticlonogenic / anti-clonal effect [4]: fair anti-clonal effect, although milder

SMILES: O=C(O)c1ccccc1 [Benzoic acid]
clonal inhibition in combination with Apigenin ([1]; HeLa): almost complete clonal inhibition
clonal inhibition in combination with Chrysin ([1]; HeLa): almost complete clonal inhibition
clonal inhibition in combination with Galangin [1, 6]: almost complete clonal inhibition
end point clonal assay, clonal inhibition alone ([1]; HeLa): neither of them induced any effect
Anti-clonal effect ([1]; HeLa): devoid of any significant anticlonogenic effect
synergy with Galangine, Apigenin and Chrysin ([1]; in association, HeLa): synergize
clonal inhibition in combination [4, 7]: a certain grade of clonal inhibition
anticlonogenic / anti-clonal effect [4]: devoid of. any direct anticlonogenic activity

SMILES: O=C(/C=C/c1ccc(O)c(O)c1)O[C@@H]1C[C@](O)(C(=O)O)C[C@@H](O)[C@H]1O [Chlorogenic acid]
clonal inhibition in combination with Apigenin ([1]; HeLa): almost complete clonal inhibition
clonal inhibition in combination with Chrysin ([1]; HeLa): almost complete clonal inhibition
clonal inhibition in combination with Galangin [1, 6]: almost complete clonal inhibition
end point clonal assay, clonal inhibition alone ([1]; HeLa): neither of them induced any effect
Anti-clonal effect ([1]; HeLa): devoid of any significant anticlonogenic effect
synergy with Galangine, Apigenin and Chrysin ([1]; in association, HeLa): synergize
clonal inhibition in combination [4, 7]: a certain grade of clonal inhibition
anticlonogenic / anti-clonal effect [4]: devoid of. any direct anticlonogenic activity

IC50 [4]: 25 µM
SMILES: O=c1cc(-c2ccccc2)oc2cc(O)cc(O)c12 [Chrysin]
Anti-clonal effect ([1]; HeLa): almost complete suppression of clonal activity
IRR (inhibitory relative rate) [4]: 2
anticlonogenic / anti-clonal effect [4]: fair anti-clonal effect, although milder

IC50 [4]: 25 µM
SMILES: O=c1c(O)c(-c2ccccc2)oc2cc(O)cc(O)c12 [Galangin]
Anti-clonal effect ([1]; HeLa): almost complete suppression of clonal activity
anti-clonal effect at concentrations above CID50 ([1]; higher concentrations than CID50, HeLa, FIG. 3): completely suppressive
end-point anti-clonal effect versus control untreated cells ([3]; alone, SiHa): no difference to control untreated cells
inhibition at 25 µM ([3]; Homo sapiens, 25 μM, single compound, 24 hours treatment then wash-out, SiHa, FIG. 12, read-out: clonal inhibition): ~50%
antiproliferative effect [5]: sharp anticlonogenic and antiproliferative effect
IRR (inhibitory relative rate) [4]: 2
anticlonogenic / anti-clonal effect [4]: sharp anticlonogenic and antiproliferative effect

SMILES: O=C1c2c(O)cc(O)cc2O[C@H](c2ccccc2)[C@H]1O [Pinobanksin]
Anti-clonal effect ([1]; HeLa): No effect

SMILES: O=C1C[C@@H](c2ccccc2)Oc2cc(O)cc(O)c21 [Pinocembrin]
Anti-clonal effect ([1]; HeLa): devoid of any significant anticlonogenic effect

SMILES: O=C(O)c1ccc(O)c(O)c1 [Protocatechuic acid]
clonal inhibition in combination with Apigenin ([1]; HeLa): almost complete clonal inhibition
clonal inhibition in combination with Chrysin ([1]; HeLa): almost complete clonal inhibition
clonal inhibition in combination with Galangin [1, 6]: almost complete clonal inhibition
end point clonal assay, clonal inhibition alone ([1]; HeLa): neither of them induced any effect
Anti-clonal effect ([1]; HeLa): devoid of any significant anticlonogenic effect
synergy with Galangine, Apigenin and Chrysin ([1]; in association, HeLa): synergize
clonal inhibition in combination [4, 7]: a certain grade of clonal inhibition
anticlonogenic / anti-clonal effect [4]: devoid of. any direct anticlonogenic activity

SMILES: O=c1c(O)c(-c2ccc(O)c(O)c2)oc2cc(O)cc(O)c12 [Quercetin]
Anti-clonal effect ([1]; HeLa): almost complete suppression of clonal activity
IC50 [4]: 50 µM
anticlonogenic / anti-clonal effect [4]: fair anti-clonal effect, although milder

SMILES: C[C@@H]1O[C@@H](OC[C@H]2O[C@@H](Oc3c(-c4ccc(O)c(O)c4)oc4cc(O)cc(O)c4c3=O)[C@H](O)[C@@H](O)[C@@H]2O)[C@H](O)[C@H](O)[C@H]1O [Rutin]
Anti-clonal effect ([1]; HeLa): No effect

SMILES: COc1cc(C(=O)O)ccc1O [Vanillic acid]
clonal inhibition in combination with Apigenin ([1]; HeLa): almost complete clonal inhibition
clonal inhibition in combination with Galangin ([1]; 50 μM combined with Galangin 12.5 μM, HeLa, FIG. 9-10): almost complete clonal inhibition
end point clonal assay, clonal inhibition alone ([1]; HeLa): neither of them induced any effect
Anti-clonal effect ([1]; HeLa): devoid of any significant anticlonogenic effect
synergistic effect with Galangine and Apigenin ([1]; in association, HeLa, FIG. 9): synergistic effect
clonal inhibition in combination ([4]; combined with Galangin or Quercetin): a certain grade of clonal inhibition
anticlonogenic / anti-clonal effect [4]: devoid of any direct activity
anticlonogenic / anti-clonal effect ([4]; listed as Vanillic): devoid of. any direct anticlonogenic activity
